A word on the inhibition: it is how much of the control response was suppressed. As usually defined, the IC50 is the concentration at which inhibition is half-maximal. For orientation: EC50 means the concentration giving half of the maximal effect. Read a low EC50 as an effect from little substance.

Several values for one entry are separate records, joined by “and”; a condition that tells them apart may be missing. Identical values can stand only once. Like-named read-outs stand apart in the source and are kept apart here. A value given as a limit tells only on which side of the number the result lay.

The values that follow come from US20240317691A1, “Compounds for Modulating Epithelial 15-(S)-Lipoxygenase-2 and Methods of Use for Same” (The Regents of the University of California, priority 2021, published 2024).

Assay [1] addresses T1, h15-LOX-2 (Homo sapiens (Human), UniProt O15296). Put plainly: Lipoxygenase UV-Vis-based IC50 assay, h15-LOX-2. The settings on record: for potency against h15-LOX-2, SAR statement: compared with original hits; for inhibition at 20 µM: read-out: % Inhibition at 20 μM.
Procedure: (§3) The full IC50 experiments were done with at least five different inhibitor concentrations. All reaction mixtures were 2 mL in volume and constantly stirred using a magnetic stir bar at room temperature (23° C.) with the appropriate amount of LOX isozyme [h5-LOX (˜200 nM); h12-LOX (˜50 nM); h15-LOX-1 (˜60 nM); h15-LOX-2 (˜200 nM)]. […] Reactions with h12-LOX were carried out in 25 mM HEPES (pH 8.0) 0.01% Triton X-100 and 10 μM AA. Reactions with the crude, ammonium sulfate precipitated h5-LOX were carried out in 25 mM HEPES (pH 7.3), 0.3 mM CaCl2), 0.1 mM EDTA, 0.2 mM ATP, 0.01% Triton X100 and 10 μM AA. Reactions with h15-LOX-1 and h15-LOX-2 were carried out in 25 mM HEPES buffer (pH 7.5), 0.01% Triton X-100 and 10 μM AA. […] IC50 values were obtained by determining the percent inhibition at various inhibitor concentrations and plotting against inhibitor concentration, followed by a hyperbolic saturation curve fit. The percent inhibition was calculated by comparing the enzymatic rate of the control (DMSO) to the enzymatic rate with the respective inhibitor present. The experiments used for generating the saturation curves were performed in duplicate or triplicate, depending on the quality of the data.
Assay [2] addresses h5-LOX (Homo sapiens (Human), UniProt P09917). Put plainly: Lipoxygenase UV-Vis-based assay, h5-LOX selectivity.
Procedure: as §3
Assay [3] deals with ovine COX-1 (Ovis aries (Sheep), UniProt P05979). Put plainly: Cyclooxygenase selectivity assay, COX-1. Type of assay: biochemical. The settings on record: estimated at 25 μM inhibitor concentration, 100 μM AA. The method, then: (§1) Cyclooxygenase selectivity assay was performed as previously described.^24 Approximately 3 μg of either ovine COX-1 (COX-1) or human recombinant COX-2 (COX-2) (Cayman Chemical) were added to buffer containing 0.1 M Tris-HCl buffer (pH 8.0), 5 mM EDTA, 2 mM phenol, and 1 μM hemin at 37° C. […] The reaction was then initiated by adding approximately 100 μM AA in the reaction cell, as indicated in the enzymatic protocol (Cayman Chemicals). A Hansatech DWI oxygen electrode was utilized for data collection and the consumption of oxygen was recorded.
Chain of ovine COX-1 (P05979 25-600): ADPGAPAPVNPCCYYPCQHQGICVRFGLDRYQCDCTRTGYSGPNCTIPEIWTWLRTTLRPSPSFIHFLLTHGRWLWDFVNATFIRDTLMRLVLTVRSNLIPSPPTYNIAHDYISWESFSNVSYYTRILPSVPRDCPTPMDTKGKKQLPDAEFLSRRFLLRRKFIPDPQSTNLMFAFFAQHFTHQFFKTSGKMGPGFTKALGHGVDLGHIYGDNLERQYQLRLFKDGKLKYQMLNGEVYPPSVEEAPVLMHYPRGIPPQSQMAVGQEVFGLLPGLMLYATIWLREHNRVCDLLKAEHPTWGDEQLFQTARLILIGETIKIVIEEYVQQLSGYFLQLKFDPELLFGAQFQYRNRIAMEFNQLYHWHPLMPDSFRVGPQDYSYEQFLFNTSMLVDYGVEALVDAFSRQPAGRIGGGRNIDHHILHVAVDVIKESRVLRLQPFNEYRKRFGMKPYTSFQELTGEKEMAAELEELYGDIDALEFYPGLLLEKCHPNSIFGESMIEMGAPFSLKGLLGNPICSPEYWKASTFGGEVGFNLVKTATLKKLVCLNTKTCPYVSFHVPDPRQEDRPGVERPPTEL
(§2) Indomethacin and the vehicle of inhibitor (DMSO) were the positive and negative controls, respectively. The percent inhibition of the enzyme was calculated by comparing the rates of O2 consumption for experimental samples (with inhibitor) to the rates of control samples (with DMSO).

The target of assay [4] is h15-LOX-1 (Homo sapiens (Human), UniProt P16050). Put plainly: Lipoxygenase UV-Vis-based assay, h15-LOX-1 selectivity.
Chain of h15-LOX-1 (P16050 whole entry): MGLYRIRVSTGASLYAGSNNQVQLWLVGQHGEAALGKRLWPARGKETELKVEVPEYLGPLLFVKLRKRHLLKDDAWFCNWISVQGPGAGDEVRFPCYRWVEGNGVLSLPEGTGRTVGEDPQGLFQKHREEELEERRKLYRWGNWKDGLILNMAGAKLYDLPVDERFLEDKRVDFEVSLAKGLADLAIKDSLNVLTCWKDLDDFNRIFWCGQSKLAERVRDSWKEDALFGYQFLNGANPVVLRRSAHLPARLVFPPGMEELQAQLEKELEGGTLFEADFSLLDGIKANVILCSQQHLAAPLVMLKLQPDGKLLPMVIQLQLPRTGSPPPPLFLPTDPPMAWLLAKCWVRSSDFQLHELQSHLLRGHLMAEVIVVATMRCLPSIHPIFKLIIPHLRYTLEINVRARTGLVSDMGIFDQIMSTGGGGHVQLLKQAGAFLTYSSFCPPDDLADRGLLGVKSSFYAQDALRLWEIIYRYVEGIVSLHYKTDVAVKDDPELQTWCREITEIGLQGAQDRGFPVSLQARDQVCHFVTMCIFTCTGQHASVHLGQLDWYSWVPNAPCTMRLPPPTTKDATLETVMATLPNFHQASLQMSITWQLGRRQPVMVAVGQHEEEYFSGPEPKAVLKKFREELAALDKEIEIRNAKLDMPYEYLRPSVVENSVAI
Procedure: as §3
The target in assay [5] is h12-LOX (Homo sapiens (Human), UniProt P18054). Description: Lipoxygenase UV-Vis-based assay, h12-LOX selectivity.
Chain of h12-LOX (P18054 whole entry): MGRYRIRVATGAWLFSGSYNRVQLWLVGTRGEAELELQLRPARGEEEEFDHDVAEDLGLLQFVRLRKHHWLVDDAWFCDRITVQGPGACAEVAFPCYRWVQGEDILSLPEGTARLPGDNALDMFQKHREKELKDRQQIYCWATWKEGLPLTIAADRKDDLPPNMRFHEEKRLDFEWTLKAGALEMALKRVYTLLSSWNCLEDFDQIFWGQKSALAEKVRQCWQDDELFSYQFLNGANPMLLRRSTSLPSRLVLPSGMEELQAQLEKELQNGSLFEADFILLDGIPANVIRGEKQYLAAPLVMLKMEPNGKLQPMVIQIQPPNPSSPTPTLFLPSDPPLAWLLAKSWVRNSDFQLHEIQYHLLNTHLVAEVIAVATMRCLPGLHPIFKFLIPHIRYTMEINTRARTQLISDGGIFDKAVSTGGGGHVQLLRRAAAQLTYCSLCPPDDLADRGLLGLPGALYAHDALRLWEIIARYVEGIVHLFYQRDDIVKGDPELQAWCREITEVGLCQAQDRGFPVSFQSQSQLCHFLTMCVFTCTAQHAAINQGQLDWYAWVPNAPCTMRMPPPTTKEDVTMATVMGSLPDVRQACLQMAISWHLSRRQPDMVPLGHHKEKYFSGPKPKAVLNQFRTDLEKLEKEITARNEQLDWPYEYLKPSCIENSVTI
Procedure: as §3
Assay [6] has as its target human recombinant COX-2 (Homo sapiens (Human), UniProt P35354). Put plainly: Cyclooxygenase selectivity assay, COX-2. It counts as biochemical. The conditions noted are these: estimated at 25 μM inhibitor concentration, 100 μM AA. The procedure:
as §1, §2

Assay [7] deals with T1, h15-LOX-2. Put plainly: Hydrogen/deuterium exchange mass spectrometry of h15-LOX-2. The settings on record: 20 μM inhibitor.
Procedure: Samples were incubated randomly at 10 time points (0, 10, 20, 45, 60, 180, 600, 1800, 3600, and 7200 s) at 25° C. using a water bath. For each given temperature and mutant, the time points (samples) were collected over the course of three to four days and randomized to reduce systematic error. Each sample (from a unique time point) was prepared and processed once. For the samples containing inhibitors, the inhibitor was added (20 μM final concentration) to the protein stock solution (at least one minute) prior to D2O addition. The specific inhibitor was also added to the D2O buffer at a final concentration of 20 μM prior to the exchange experiment.
Procedures from this point were conducted near 4° C. Prior to pepsin digestion, guanidine HCl (in citric acid, pH 2.4) was mixed with the samples to a final concentration of ca. 0.5 M. This solution contained DTT to the final concentration of 5 mM. […]
Deuterated, pepsin-digested samples of 15-LOX-2 were analyzed using an Agilent 1200 LC (Santa Clara, CA) that was connected in-line with the LTQ Orbitrap XL mass spectrometer (Thermo). Mass spectral data acquired for HDX measurements were analyzed using the software, HDX WorkBench. The percent deuterium incorporation was calculated for each of these peptides, taking into account the number of amide linkages (excluding proline residues) and the calculated number of deuterons incorporated. […]
Assay [8] has as its target T1, h15-LOX-2. Description: Inhibitors as substrates of h15-LOX-2 (UV-Vis and RP-HPLC). It counts as biochemical. The settings on record: 20 μM inhibitor, absence of AA.
Procedure: All buffer conditions and the determination of each rate are identical to the UV-Vis assay as described above. 20 μM of each inhibitor was reacted with h15-LOX-2 in 2 mL reaction mixtures in the absence of AA. Controls included DMSO (vehicle), 10 μM AA, and enzyme. All reactions were conducted on a Perkin Elmer Lambda 40 UV/Vis spectrophotometer. […] Each reaction mixture was subsequently extracted and analyzed via RP-HPLC using a Higgins HAIsiL analytical column. […] Retention times and absorbance spectra of each of the reactions were compared to spectra of the controls.
For assay [9], the target named is T1, h15-LOX-2. Put plainly: Steady-state inhibition kinetics of h15-LOX-2. It counts as biochemical.
Procedure: Reactions were initiated by adding h15-LOX-2 to a constantly stirring 2 mL reaction mixture containing 0.7 μM-20 μM AA in 25 mM HEPES buffer (pH 7.5), in the presence of 0.01% Triton X-100. Kinetic data were obtained by recording initial enzymatic rates, at varied inhibitor concentrations, and subsequently fitting the data to the Henri-Michaelis-Menten equation using KaleidaGraph (Synergy) to determine Vmax (μmol/min) and Km (μM). The primary data were then plotted in Dixon format using Microsoft Excel by graphing 1/v vs. [I] μM at the chosen substrate concentrations. From the Dixon plots, the slope at each substrate concentration was extracted and plotted against 1/[S] μM to produce the Dixon replots. The Kic equilibrium constant of dissociation was calculated by dividing Km/Vmax by the slope of the replot. To obtain Kiu, 1/Vmax was divided by the y-intercept of the replot. Kic and Kiu are defined as the equilibrium constant of dissociation from the catalytic and secondary sites, respectively.
In assay [10] the target is T1, h15-LOX-2. Description: Pseudo-peroxidase activity assay (redox). It counts as biochemical. The settings on record: 20 μM inhibitor, degradation of 13-HpODE at 234 nm; more than 25% degradation indicates redox activity.
Procedure: 13-HpODE was used as the oxidant and BWb70c as the positive control. […] The reaction mixtures were constantly stirred at 23° C. […] The negative controls used were: enzyme alone with the product, enzyme alone with inhibitor, as well as inhibitor alone with the product. These formed a baseline for the assay, reflecting non-pseudo-peroxidase dependent hydroperoxide product decomposition. To rule out the auto-inactivation of the enzyme from pseudo-peroxidase cycling, the h15-LOX-2 residual activity was determined by the addition of 20 μM AA at the end of each reaction.
Assay [11] has as its target h15-LOX-2 expressed in HEK293T cells (Homo sapiens (Human), UniProt O15296). Description: Inhibition of h15-LOX-2 in HEK293T cells (15-HETE production). It counts as cell-based. The conditions noted are these: h15-LOX-2/HEK293T cells, exogenous AA, triplicate.
Procedure: HEK293T cells over-expressing h15-LOX-2 were grown in MEM (Gibco) with 10% FBS (Gibco), 2 mM glutamine (Sigma), 100U/mL of penicillin/streptomycin (Gibco) and 640 μg/ml G418 sulfate (Fisher) as a selection agent. Cells were harvested at 90% confluence with trypsin-EDTA (Gibco) and washed once with MEM with 10% FBS. Cells were then washed with 0.1% glucose (Fisher) in PBS (Gibco). Cells were then diluted in 0.1% glucose in PBS to a concentration of 1 million cells/mL. Cells were treated with DMSO (0.2%) or inhibitor in DMSO and incubated at 37° C. for 20 min. Cells were then stimulated with 100 uM CaCl2) (Sigma), 5 μM Ca Ionophore A23187 (Sigma), and 1 μM arachidonic acid (NuCheck) for 10 min at 37° C. Cells were then acidified to 40 uM HCl and snap-frozen in liquid nitrogen.
[12] abbreviates: read-out: IC50 (μM) (± SD), h15-LOX-2 SAR study, 10 μM AA, 0.01% TritonX-100.
[13] abbreviates: read-out: IC50 (μM) (± SD (μM)), h15-LOX-2, 10 μM AA, duplicate.
[14] abbreviates: read-out: h15-LOX-2 IC50, experimental values repeated in docking table.
[15] abbreviates: read-out: h15-LOX-2 IC50, full IC50 experiment, 10 μM AA, duplicate.
[16] abbreviates: equilibrium constant of dissociation from the catalytic site, Dixon replot, 0.01% Triton X-100, read-out: Kic.

Chain of h5-LOX (P09917 whole entry): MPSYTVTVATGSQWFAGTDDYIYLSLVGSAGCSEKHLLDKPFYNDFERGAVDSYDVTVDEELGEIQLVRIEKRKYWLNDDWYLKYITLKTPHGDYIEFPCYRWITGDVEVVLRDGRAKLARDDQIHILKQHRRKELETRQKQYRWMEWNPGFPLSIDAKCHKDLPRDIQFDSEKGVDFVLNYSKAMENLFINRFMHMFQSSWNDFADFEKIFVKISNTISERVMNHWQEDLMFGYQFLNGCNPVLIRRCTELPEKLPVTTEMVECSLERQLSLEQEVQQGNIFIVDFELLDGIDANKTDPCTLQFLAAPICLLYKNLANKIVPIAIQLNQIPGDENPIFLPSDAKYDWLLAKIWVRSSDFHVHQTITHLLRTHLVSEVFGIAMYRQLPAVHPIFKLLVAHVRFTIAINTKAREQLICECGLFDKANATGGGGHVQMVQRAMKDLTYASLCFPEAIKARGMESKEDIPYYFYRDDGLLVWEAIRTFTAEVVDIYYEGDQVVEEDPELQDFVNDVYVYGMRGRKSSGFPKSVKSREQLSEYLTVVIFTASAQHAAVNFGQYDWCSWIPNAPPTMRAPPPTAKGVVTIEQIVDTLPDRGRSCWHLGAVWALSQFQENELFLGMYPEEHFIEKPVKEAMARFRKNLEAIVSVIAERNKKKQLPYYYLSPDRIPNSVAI
Chain of human recombinant COX-2 (P35354 18-604): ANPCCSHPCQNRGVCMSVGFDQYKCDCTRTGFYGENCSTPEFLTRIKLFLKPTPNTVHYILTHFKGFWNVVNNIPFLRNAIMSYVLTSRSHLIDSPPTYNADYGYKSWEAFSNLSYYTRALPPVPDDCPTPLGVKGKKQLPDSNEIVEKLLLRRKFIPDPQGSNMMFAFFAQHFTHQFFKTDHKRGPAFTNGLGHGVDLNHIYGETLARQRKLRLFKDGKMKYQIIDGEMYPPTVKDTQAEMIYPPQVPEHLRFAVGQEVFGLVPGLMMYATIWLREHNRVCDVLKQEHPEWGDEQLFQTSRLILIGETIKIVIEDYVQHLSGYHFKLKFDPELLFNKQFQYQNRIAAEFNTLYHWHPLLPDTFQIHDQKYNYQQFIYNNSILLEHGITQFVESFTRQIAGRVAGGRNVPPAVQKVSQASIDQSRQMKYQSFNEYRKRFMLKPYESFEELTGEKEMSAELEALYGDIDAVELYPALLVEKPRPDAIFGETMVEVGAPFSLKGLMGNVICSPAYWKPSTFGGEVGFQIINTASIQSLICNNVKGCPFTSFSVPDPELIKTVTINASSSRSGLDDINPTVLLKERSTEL
T1 sequence (O15296 whole entry): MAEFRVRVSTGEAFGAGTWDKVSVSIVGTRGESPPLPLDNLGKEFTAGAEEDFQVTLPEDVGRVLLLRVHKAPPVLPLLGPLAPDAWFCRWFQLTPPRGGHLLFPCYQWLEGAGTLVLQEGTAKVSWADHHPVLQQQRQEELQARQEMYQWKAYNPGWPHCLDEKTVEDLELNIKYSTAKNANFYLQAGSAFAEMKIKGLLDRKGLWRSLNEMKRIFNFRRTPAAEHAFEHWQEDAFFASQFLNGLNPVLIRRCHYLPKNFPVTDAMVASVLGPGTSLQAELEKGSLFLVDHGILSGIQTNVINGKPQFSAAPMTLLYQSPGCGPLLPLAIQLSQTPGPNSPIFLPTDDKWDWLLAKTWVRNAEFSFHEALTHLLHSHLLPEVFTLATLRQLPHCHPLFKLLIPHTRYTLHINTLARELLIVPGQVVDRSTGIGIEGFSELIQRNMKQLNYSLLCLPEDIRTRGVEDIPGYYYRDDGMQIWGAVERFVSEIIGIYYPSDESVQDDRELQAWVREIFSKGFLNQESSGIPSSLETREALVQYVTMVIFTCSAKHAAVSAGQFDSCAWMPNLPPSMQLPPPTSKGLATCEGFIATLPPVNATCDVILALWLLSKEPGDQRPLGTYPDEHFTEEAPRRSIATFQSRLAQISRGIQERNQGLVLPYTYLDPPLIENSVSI
Chain of h15-LOX-2 expressed in HEK293T cells (O15296 whole entry): as above

Regarding `Cc1ccccc1CSc1nccn1-c1ccccc1` [Compound 108], in assay [1], the “potency against h15-LOX-2, SAR statement” value is listed as “drastically decreased the potency” and the inhibition at 20 µM is 31%. Moreover, the IC50 in assay [1] (setting [12]) was greater than 50 µM.
Consider `Cc1ccc(C(=O)CSc2nccn2-c2ccccc2)cc1` [Compound 113], for which the inhibition at 20 µM in assay [1] turned out to be 56%. Moreover, in assay [1] (setting [12]), the IC50 is greater than 25 µM.
With `N#Cc1cc(CSc2nccn2-c2ccccc2)ccc1F` [Compound 104, 2-fluoro-5-(((1-phenyl-1H-imidazol-2-yl)thio)methyl)benzonitrile], in assay [1], the “potency against h15-LOX-2, SAR statement” value is on record as “drastically decreased the potency” and the inhibition at 20 µM was determined as 23%. Besides, the IC50 in assay [1] (setting [12]) is greater than 100 µM.
In the case of `O=C(O)CCCSc1nccn1-c1ccccc1` [Compound 112], in [1], the inhibition at 20 µM came to 8%. In addition, in [1] (setting [12]), the IC50 is greater than 100 µM.
The corresponding values for `O=C(CSc1nccn1-c1ccccc1)NO` [Compound 111] are 4% and greater than 100 µM.
The corresponding values for `Cc1cc(C)cc(NC(=O)CSc2nccn2-c2ccccc2)c1` [Compound 116] are 0% and greater than 100 µM.
As to `c1ccc(CCSc2nccn2-c2ccccc2)cc1` [Compound 110], in assay [1], the “potency against h15-LOX-2, SAR statement” value is reported as “drastically decreased the potency” and the inhibition at 20 µM was determined as 68%. Also, in assay [1] (setting [12]), the IC50 was greater than 25 µM.
As for `Cc1cccc(-n2ccnc2SCC(=O)Nc2cc(C(F)(F)F)ccc2Cl)c1` [Compound 127], the inhibition at 20 µM in assay [1] was 13%. Besides, in assay [1] (setting [12]), the IC50 was greater than 100 µM.
As for `Fc1ccc(CSc2nccn2-c2ccccc2)cc1` [Compound 102, 2-((4-fluorobenzyl)thio)-1-phenyl-1H-imidazole], the inhibition at 20 µM in assay [1] was determined as 35%. The IC50 in [1] (setting [13]) and in assay [1] (setting [12]) was greater than 100 µM each time.
As for `Cc1ccc(-n2ccnc2SCC(=O)O)c(C)c1` [Compound 125], the inhibition at 20 µM in [1] is 16%. In addition, in [1] (setting [12]), the IC50 was greater than 50 µM.
The corresponding values for `Cc1ccc(NC(=O)CSc2nccn2-c2ccccc2)cc1` [Compound 118] are 18% and greater than 50 µM.
The corresponding values for `O=C(CSc1nccn1-c1ccccc1)c1ccc(Cl)cc1` [Compound 114] are 62% and greater than 25 µM.
As to `Cc1cccc(-n2ccnc2SCC(=O)Nc2ccccc2C(F)(F)F)c1` [Compound 126], the inhibition at 20 µM in assay [1] worked out at 4%. For the same compound, the IC50 in assay [1] (setting [12]) is greater than 100 µM.
For the compound `CSc1ccc(CSc2nccn2-c2ccccc2)cc1` [Compound 103, 2-((4-(methylthio)benzyl)thio)-1-phenyl-1H-imidazole], the inhibition at 20 µM in assay [1] stood at 84%. Also, the IC50 in assay [1] (setting [13]) and in assay [1] (setting [12]) was 2.3 µM each time.
As for `Brc1ccc(CSc2nccn2-c2ccccc2)cc1` [Compound 106], the IC50 was greater than 100 µM in [2]; greater than 100 µM in [3]; greater than 50 µM in assay [4]; greater than 100 µM in [5]; greater than 100 µM in assay [6].
Turning to `Cc1ccccc1-n1ccnc1SCC(=O)O` [Compound 122], the inhibition at 20 µM in assay [1] came out at 8%. The IC50 in assay [1] (setting [12]) was greater than 100 µM.
The corresponding values for `Cc1ccc(C)c(-n2ccnc2SCC(=O)O)c1` [Compound 119] are 4% and greater than 100 µM.
Consider `FC(F)(F)c1ccc(CSc2nccn2-c2ccccc2)cc1` [Compound 105], for which the “enhanced inhibition over inhibitor 536924” value in assay [1] (ratio of h15-LOX-2 IC50 values) is roughly 10 fold. Further, the inhibition at 20 µM in assay [1] came out at 100%. In addition, the IC50 in [1] (setting [13]) is 0.34 µM; in assay [1] (setting [12]) it was 0.34 µM; in [1] (setting [14]), 0.34 µM; in assay [1] (setting [15]), 0.34 µM; in assay [2], greater than 100 µM; in assay [3], greater than 100 µM. Also, the IC50 was greater than 50 µM in assay [4], greater than 100 µM in [5] and greater than 100 µM in assay [6]. Besides, the “average HDX rate constants of peptides 173-184 and 184-191 in presence of inhibitor” value in assay [7] (bi-exponential fits) is 2—and 4-times slower. Further, the “reduction in exchange of h15-LOX-2 peptides 173-184 and 184-191” value in assay [7] (short time scales (<10 min), 25° C.) was no more than 20%. Further, the “substrate activity with h15-LOX-2” value in assay [8] is on record as “not substrates”. The Ki is 0.8 µM in [9] (Dixon replot of slope versus [Inhibitor], unit given as M, read-out: Kic (FIG. 2 legend)) and 0.7 µM in [9] (setting [16]). The Redox result in assay [10] is on record as “No”. For the same compound, the EC50 in [11] is ~1 µM and 0.75 µM.
On to `Cc1ccc(-n2ccnc2SCC(=O)O)cc1C` [Compound 124], for which, in assay [1], the inhibition at 20 µM was found to be 14%. For the same compound, the IC50 in [1] (setting [12]) was greater than 100 µM.
Consider `Cc1cccc(-n2ccnc2SCC(=O)O)c1C` [Compound 121], for which the inhibition at 20 µM in [1] worked out at 7%. In assay [1] (setting [12]), the IC50 was greater than 100 µM.
As for `CC(C)c1ccc(-n2ccnc2SCC(=O)O)cc1` [Compound 123], the inhibition at 20 µM in assay [1] came out at 13%. In addition, the half-inhibitory concentration (IC50) in [1] (setting [12]) is greater than 100 µM.
`CCc1ccc(CSc2nccn2-c2ccccc2)cc1` [Compound 107]: in assay [1], the inhibition at 20 µM is 98%. Also, the IC50 in assay [1] (setting [13]) was 0.87 µM; in assay [1] (setting [12]) it was 0.87 µM; in assay [1] (setting [14]) it was 0.87 µM; in [1] (setting [15]) it was 0.87 µM; in [2], greater than 100 µM; in [3] it was greater than 100 µM. In addition, the figures for the IC50 in [4], in assay [5] and in assay [6] were greater than 50 µM, greater than 100 µM and greater than 100 µM, respectively. Besides, the “substrate activity with h15-LOX-2” value in [8] was “not substrates”. The Ki in [9] (setting [16]) was determined as 0.9 µM; in assay [9] (equilibrium constant of dissociation from the secondary site, Dixon replot, 0.01% Triton X-100, read-out: Kiu), 3.4 µM. Besides, in assay [10], the Redox result was “No”. In addition, in assay [11], the EC50 is ~1 µM and 1.3 µM.
`Clc1cccc(CSc2nccn2-c2ccccc2)c1` [Compound 109]: in assay [1], the “potency against h15-LOX-2, SAR statement” value was “drastically decreased the potency” and the inhibition at 20 µM was determined as 39%. For the same compound, the IC50 in assay [1] (setting [12]) was greater than 50 µM.
`O=C(CSc1nccn1-c1ccccc1)NCc1ccc(F)cc1` [Compound 117]: the inhibition at 20 µM in [1] came out at 8%. Besides, in assay [1] (setting [12]), the IC50 was greater than 100 µM.
The corresponding values for `O=C(CSc1nccn1-c1ccccc1)c1ccc(Br)cc1` [Compound 115] are 51% and greater than 25 µM.
As for `Cc1ccc(-n2ccnc2SCc2ccc(C(F)(F)F)cc2)cc1` [Compound 101, 1-(p-tolyl)-2-((4-(trifluoromethyl)benzyl)thio)-1H-imidazole], the inhibition at 20 µM in [1] turned out to be 97%. The IC50 in assay [1] (setting [12]) stood at 0.27 µM.
As to `Cc1cc(C)cc(-n2ccnc2SCC(=O)O)c1` [Compound 120], in assay [1], the inhibition at 20 µM was found to be 7%. The IC50 in assay [1] (setting [12]) is greater than 100 µM.
